Like-named read-outs stand apart in the source and are kept apart here.
Legend:
[1] = system: A2780 cells; experiment: In-vitro cell proliferation assay (SRB), A2780 cells; type: cell-based; conditions: A2780 cells, 72 hours, read-out: A2780 IC50
Procedure, shortened: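 Proliferation is assessed by sulforhodamine B staining following a 72-hour incubation with compound dilutions containing 0.1% DMSO.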

[2] = molecular target: T1, NAMPT (Homo sapiens, UniProt P43490); experiment: Biochemical inhibition assay: NAMPT enzymatic reaction, NMN quantified by mass spectrometry; conditions: read-out: Biochem IC50
T1 construct: His tag; host or cells: E. coli
Procedure, shortened: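 Inhibition of E. coli-expressed His-tagged human NAMPT, measured as NMN formation by mass spectrometry after a 30 min room-temperature reaction containing 1 μM NAM, 100 μM PRPP and 2.5 mM ATP.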

[3] = Homo sapiens, A2780, 72 h, SRB assay

T1 sequence (P43490 whole entry): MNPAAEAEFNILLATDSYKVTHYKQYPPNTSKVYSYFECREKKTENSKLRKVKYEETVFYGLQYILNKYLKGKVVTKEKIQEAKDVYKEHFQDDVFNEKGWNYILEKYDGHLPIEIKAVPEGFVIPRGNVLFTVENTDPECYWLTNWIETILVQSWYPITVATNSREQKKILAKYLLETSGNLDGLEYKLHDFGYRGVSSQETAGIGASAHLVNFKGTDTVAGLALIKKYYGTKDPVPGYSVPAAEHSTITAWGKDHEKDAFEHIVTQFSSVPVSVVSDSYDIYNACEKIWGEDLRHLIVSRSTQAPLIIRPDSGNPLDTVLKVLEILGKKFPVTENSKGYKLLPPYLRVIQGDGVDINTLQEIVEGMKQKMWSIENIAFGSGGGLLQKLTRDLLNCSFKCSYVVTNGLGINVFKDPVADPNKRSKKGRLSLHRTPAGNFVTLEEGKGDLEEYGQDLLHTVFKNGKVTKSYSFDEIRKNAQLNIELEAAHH

SMILES	IC50 ([1]; Homo sapiens, A2780, 72 h, SRB) [µM]	IC50 ([2]; NAMPT enzymatic assay) [µM]	IC50 ([2]; NAMPT enzymatic reaction) [µM]	other results
CCN(CC)C(=O)c1cc(F)cc(S(=O)(=O)c2ccc(CNC(=O)c3cnc4nccn4c3)cc2)c1 [N-[(4-{[3-(diethylcarbamoyl)-5-fluorobenzene]sulfonyl}phenyl)methyl]imidazo[1,2-a]pyrimidine-6-carboxamide]	0.0168	0.0047		
Cc1cc(Cl)cnc1S(=O)(=O)c1ccc(CNC(=O)c2cc3ccncc3o2)cc1 [N-{[4-(5-chloro-3-methylpyridine-2-sulfonyl)phenyl]methyl}furo[2,3-c]pyridine-2-carboxamide]	0.0165	0.0099		
O=C(NCc1ccc(S(=O)(=O)c2cc(Cl)ccc2OCC(F)(F)F)cc1)c1ccc2nccn2c1	0.0003	0.001		
CCCCOc1cc(F)ccc1S(=O)(=O)c1ccc(CNC(=O)c2cc3ccncc3o2)cc1	0.0665		0.0335	
CCOc1cc(Cl)ccc1S(=O)(=O)c1ccc(CNC(=O)c2cc3ccncc3o2)cc1	0.0051		0.0072	
O=C(NCc1ccc(S(=O)(=O)N2CCCCC2)cc1)c1cc2ccncc2[nH]1 [N-{[4-(piperidine-1-sulfonyl)phenyl]methyl}-1H-pyrrolo[2,3-c]pyridine-2-carboxamide]			0.004	IC50 [1, 3]: 0.054 µM
O=C(NCc1ccc(S(=O)(=O)c2cc(Cl)cc(CO)c2)cc1)c1cc2ccncc2s1				IC50 ([1]; SRB): 0.0008 µM; IC50 [2]: 0.0033 µM
O=C(NCc1ccc(S(=O)(=O)c2cncc(N3CCCC3)c2)cc1)c1ccc2nccn2c1 [N-({4-[5-(pyrrolidin-1-yl)pyridine-3-sulfonyl]phenyl}methyl)imidazo[1,2-a]pyridine-6-carboxamide]	0.0005	0.004		
COc1cc(F)ccc1NS(=O)(=O)c1ccc(CNC(=O)c2cc3cnccc3[nH]2)cc1 [N-({4-[(4-fluoro-2-methoxyphenyl)sulfamoyl]phenyl}methyl)-1H-pyrrolo[3,2-c]pyridine-2-carboxamide]			3.14	IC50 [1, 3]: > 30 µM
COc1cccc(S(=O)(=O)c2ccc(CNC(=O)c3cnc4[nH]ncc4c3)cc2)c1	0.01		0.0209	
Cc1cc(Cl)cc(S(=O)(=O)c2ccc(CNC(=O)c3cc4ccncc4s3)cc2)c1 [N-({4-[(3-chloro-5-methylbenzene)sulfonyl]phenyl}methyl)thieno[2,3-c]pyridine-2-carboxamide]	0.0016		0.0045	
Cc1ccc(S(=O)(=O)c2ccc(CNC(=O)c3cc4cnccc4[nH]3)cc2)cn1 [N-{[4-(6-methylpyridine-3-sulfonyl)phenyl]methyl}-1H-pyrrolo[3,2-c]pyridine-2-carboxamide]	0.013	0.0557		
O=C(NCc1ccc(S(=O)(=O)c2ccc(N3CCOCC3)nc2)cc1)c1ccc2nccn2c1 [N-({4-[6-(morpholin-4-yl)pyridine-3-sulfonyl]phenyl}methyl)imidazo[1,2-a]pyridine-6-carboxamide]	0.0015	0.009		
CCCCOc1ccc(S(=O)(=O)c2ccc(CNC(=O)c3cc4cnccc4[nH]3)cc2)cc1Cl	0.0124		0.0178	
O=C(NCc1ccc(S(=O)(=O)c2cnn(-c3ccc(F)cc3)c2)cc1)c1cc2cnccc2[nH]1 [N-({4-[1-(4-fluorophenyl)-1H-pyrazole-4-sulfonyl]phenyl}methyl)-1H-pyrrolo[3,2-c]pyridine-2-carboxamide]	0.0066	0.0184		
O=C(NCc1ccc(S(=O)(=O)c2ccc(C(F)(F)F)cc2OCC(F)(F)F)cc1)c1cc2cnccc2[nH]1	0.001	0.009		
O=C(NCC1CCN(S(=O)(=O)c2ccccc2)CC1)c1cc2cnccc2[nH]1 [N-{[1-(benzenesulfonyl)piperidin-4-yl]methyl}-1H-pyrrolo[3,2-c]pyridine-2-carboxamide]			0.015	IC50 [1, 3]: 0.009 µM
CCOc1ccc(S(=O)(=O)c2ccc(CNC(=O)c3cc4cnccc4[nH]3)cc2)cc1F	0.0054		0.0205	
CCOc1cc(F)ccc1S(=O)(=O)c1ccc(CNC(=O)c2cnc3[nH]ncc3c2)cc1	0.067		0.0863	
CCOc1ccccc1S(=O)(=O)c1ccc(CNC(=O)c2cc3ccncc3o2)cc1 [N-({4-[(2-ethoxybenzene)sulfonyl]phenyl}methyl)furo[2,3-c]pyridine-2-carboxamide]	0.006		0.0659	
O=C(NCc1ccc(S(=O)(=O)c2ccccc2CN2CCOCC2)cc1)c1cnc2nccn2c1	0.1 to 1	0.0145		
Cc1cccc(C)c1S(=O)(=O)c1ccc(CNC(=O)c2cnc3[nH]ncc3c2)cc1 [N-({4-[(2,6-dimethylbenzene)sulfonyl]phenyl}methyl)-1H-pyrazolo[3,4-b]pyridine-5-carboxamide]	0.1 to 1		0.159	
CCOc1cc(S(=O)(=O)c2ccc(CNC(=O)c3cc4ccncc4o3)cc2)ccc1F [N-({4-[(3-ethoxy-4-fluorobenzene)sulfonyl]phenyl}methyl)furo[2,3-c]pyridine-2-carboxamide]	0.0072		0.011	
CCCCOc1ccc(S(=O)(=O)c2ccc(CNC(=O)c3ccc4nccn4c3)cc2)cc1	0.0028		0.0038	

SMILES	IC50 ([1]; Homo sapiens, A2780, 72 h, SRB) [µM]	IC50 ([2]; NAMPT enzymatic assay) [µM]	IC50 ([2]; NAMPT enzymatic reaction) [µM]	other results
COc1c(C)cc(S(=O)(=O)c2ccc(CNC(=O)c3cc4cnccc4[nH]3)cc2)cc1C	0.0017		0.0516	
O=C(NCc1ccc(S(=O)(=O)c2ccc(OCCN3CCCC3)cc2)cc1)c1cc2cnccc2[nH]1		0.003		IC50 ([1]; SRB): 0.0023 µM
O=C(NCc1ccc(S(=O)(=O)c2ccc(Cl)cc2)cc1)c1cc2cnccc2[nH]1 [N-({4-[(4-chlorobenzene)sulfonyl]phenyl}methyl)-1H-pyrrolo[3,2-c]pyridine-2-carboxamide]			0.009	IC50 [1, 3]: 0.025 µM
CCNC(=O)c1ccc(S(=O)(=O)c2ccc(CNC(=O)c3ccc4nccn4c3)cc2)cc1	0.0063	0.012		
C#CCOc1ccc(Cl)cc1S(=O)(=O)c1ccc(CNC(=O)c2ccc3nccn3c2)cc1	0.0014	0.007		
O=C(NCc1ccc(S(=O)(=O)c2ccc(F)cc2C(F)(F)F)cc1)c1cc2cnccc2[nH]1	0.0141	0.027		
O=C(NCc1ccc(S(=O)(=O)c2ccc(C(F)(F)F)nc2)cc1)c1cc2ccncc2s1 [N-({4-[6-(trifluoromethyl)pyridine-3-sulfonyl]phenyl}methyl)thieno[2,3-c]pyridine-2-carboxamide]	0.0067	0.0076		
O=C(NCc1ccc(S(=O)(=O)c2ccc(Cl)cc2C(F)(F)F)cc1)c1cc2ccncc2o1	0.0254	0.0098		
O=C(NCc1ccc(S(=O)(=O)c2ccc(C(F)(F)F)cn2)cc1)c1cc2ccncc2o1 [N-({4-[5-(trifluoromethyl)pyridine-2-sulfonyl]phenyl}methyl)furo[2,3-c]pyridine-2-carboxamide]	0.1 to 1	0.037		
Cn1cc(S(=O)(=O)c2ccc(CNC(=O)c3ccc4nccn4c3)cc2)c(C(F)(F)F)n1 [N-({4-[1-methyl-3-(trifluoromethyl)-1H-pyrazole-4-sulfonyl]phenyl}methyl)imidazo[1,2-a]pyridine-6-carboxamide]	0.0278	0.0299		
CCCCOc1cc(F)ccc1S(=O)(=O)c1ccc(CNC(=O)c2cnc3nccn3c2)cc1	0.0738		0.0073	
O=C(NCc1ccc(S(=O)(=O)c2cc(F)cc(C(F)(F)F)c2)cc1)c1cc2ccncc2o1	0.005	0.0074		
Cc1cc(C(F)(F)F)ccc1S(=O)(=O)c1ccc(CNC(=O)c2cc3cnccc3[nH]2)cc1	0.0253	0.0305		
CN1CCN(c2ccc(S(=O)(=O)c3ccc(CNC(=O)c4cc5ccncc5s4)cc3)cc2)CC1	0.0003	0.001		
COc1ccc(S(=O)(=O)c2ccc(CNC(=O)c3cc4ccncc4s3)cc2)nc1 [N-{[4-(5-methoxypyridine-2-sulfonyl)phenyl]methyl}thieno[2,3-c]pyridine-2-carboxamide]	0.0193	0.0071		
O=C(NCc1ccc(S(=O)(=O)c2ccc(N3CCOCC3)nc2)cc1)c1cnc2nccn2c1 [N-({4-[6-(morpholin-4-yl)pyridine-3-sulfonyl]phenyl}methyl)imidazo[1,2-a]pyrimidine-6-carboxamide]	0.0033	0.0011		
CCCCOc1cccc(F)c1S(=O)(=O)c1ccc(CNC(=O)c2cc3ccncc3o2)cc1	0.0698		0.0256	
O=C(NCc1ccc(S(=O)(=O)c2csc(-c3cccc(F)c3)n2)cc1)c1ccc2nccn2c1 [N-({4-[2-(3-fluorophenyl)-1,3-thiazole-4-sulfonyl]phenyl}methyl)imidazo[1,2-a]pyridine-6-carboxamide]	0.0128	0.0229		
O=C(NCc1ccc(S(=O)(=O)c2cccc(N3CCOCC3)c2)cc1)c1cnc2[nH]ncc2c1	0.013	0.0167		
O=C(NCc1ccc(S(=O)(=O)c2cccc(-n3cccn3)c2)cc1)c1cc2ccncc2o1	0.0091	0.0075		
O=C(NCc1ccc(S(=O)(=O)c2ccccc2)cc1)c1ccc2ncncc2c1 [N-{[4-(benzenesulfonyl)phenyl]methyl}quinazoline-6-carboxamide]			16.1	IC50 [1, 3]: 21.3 µM
O=C(NCc1ccc2ncsc2c1)c1ccc(S(=O)(=O)c2cccc(Cl)c2)cc1 [N-(1,3-benzothiazol-6-ylmethyl)-4-[(3-chlorobenzene)sulfonyl]benzamide]	> 10	0.01		
COc1ccc(F)c(F)c1S(=O)(=O)c1ccc(CNC(=O)c2cc3cnccc3[nH]2)cc1 [N-({4-[(2,3-difluoro-6-methoxybenzene)sulfonyl]phenyl}methyl)-1H-pyrrolo[3,2-c]pyridine-2-carboxamide]	0.0849		0.204	

Source: US12336981B2, “Compounds and compositions for the inhibition of NAMPT” (Valo Health, Inc., priority 2010, dated 2025)
